From publication PMC8308784, “Novel Purine Chemotypes with Activity against Plasmodium falciparum and Trypanosoma cruzi” (Pharmaceuticals, 2021) come the findings set out here.

One data set deals with HepG2 cells. Kind of data set: HepG2 cell toxicity assay (alamarBlue). It counts as cell-based, human. The note with it: 2 days; minimum value of the 95% CI, except BNZ (mean (SD)). As for the experimental part: Human erythrocytes were purified from B+ Rh+ blood samples and maintained at 4 °C in incomplete RPMI medium. Vero (green monkey kidney epithelial cells), LLC-MK2 (Rhesus monkey kidney epithelial cells), and HepG2 (human liver epithelial cells) cultures were cultivated in DMEM supplemented with 1% penicillin–streptomycin (PS) and 10% heat-inactivated fetal bovine serum (FBS) at 37 °C, 5% CO2, and >95% humidity, as described in [31]. HepG2 cells were also supplemented with 10% non-essential amino acids. Vero and MK2 cells were passaged twice per week at 1:12 ratios, while HepG2 cells were passaged at a 1:8 ratio.
Vero and HepG2 cells were detached, centrifuged, and resuspended in DMEM without phenol red. Cell viability was checked upon cell counting with trypan blue staining. Then, Vero and HepG2 cells were diluted at a concentration of 5 × 10^5 and 3.2 × 10^5 cells per mL, respectively, before adding 100 µL per well to the 96-well plate. Each run contained its own negative (untreated cells) and positive (medium alone) controls. Plates were incubated at 37 °C for 4 days in the case of Vero, or 2 in the case of HepG2 cells. Assay readout was made by adding 50 µL per well of a PBS solution containing 10% alamarBlue reagent (Thermo Fisher Scientific); then, plates were incubated for another 6 h at 37 °C, before recording the fluorescence intensity with a Tecan Infinite M Nano+ reader (excitation: 530 nm, emission: 590 nm).
(§1) Absorbance values derived from the anti-T. cruzi assays and fluorescence values from the anti-P. falciparum and cell toxicity assays were normalized to the controls. In the primary screening at three fixed doses, the compounds’ inhibitory activity was expressed as a percentage of the negative control (100% parasitic growth). In dose–response assays, the compounds’ IC50 and TC50 values were determined with GraphPad Prism 7 software (version 7.00, 2016), using a non-linear regression analysis model defined by the following equation: Y=100 ÷(1+10^((LogIC50−X)×HillSlope))
For orientation: Resazurin is reduced to fluorescent resorufin, in cell work by metabolically active cells.

A further data set concerns P. falciparum 3D7. Put plainly: P. falciparum dose-response growth inhibition assay (FACS, SYTO 11). It counts as cell-based. The note with it: P. falciparum 3D7, 48 h, mean (SD). As for the experimental part:
Apicomplexan parasite cultures were maintained at 3% hematocrit under an atmosphere of 37 °C in 93% N2, 5% CO2, and 2% O2, following standard methods. Synchronized cultures were obtained via 5% sorbitol lysis.
P. falciparum growth was primarily analyzed under 3 different concentrations ([…]) of the 81 compounds. Conditions were tested in triplicate for every concentration, and the test was repeated when the standard deviation was above 10% for any concentration. Z-values varied between 0.83 and 0.98 in the different plates analyzed. Selected compounds (12.3% potential hit rate) were further analyzed via standard growth inhibition assays, carried out as previously described in [54]. Briefly, parasitemia was adjusted to 1–1.3%, with >90% rings after sorbitol synchronization. Two hundred microliters of parasite culture were plated in 96-well microplates and incubated for 48 h at 37 °C in the presence of decreasing concentrations of the tested compounds, in triplicate. Parasitemia was determined by fluorescence-assisted cell sorting (FACS). Non-infected RBCs and samples containing parasitized RBCs (including controls with DMSO as carrier solvent) were diluted in PBS to a final concentration of ~1–10 × 10^6 cells/mL. The cell suspension was stained with SYTO 11 (0.5 mM stock in DMSO, Thermo Fisher Scientific, Waltham, MA, USA), to a final concentration of 0.5 μM. Samples were analyzed in a Becton Dickinson FACSCalibur. Sample excitation was carried out using a 488-nm, air-cooled argon-ion laser at a power of 15 mW, using forward and side scatter to gate the RBC population, and SYTO 11 green fluorescence (530 nm, FITC filter) was collected in a logarithmic scale. The single-cell population was selected on a forward–side scattergram, and the green fluorescence from this population was analyzed. Parasitemia was expressed as the number of parasitized cells per 100 erythrocytes.
as §1

The subject of data set [1] is T. cruzi Tulahuen strain expressing β-galactosidase. Put plainly: anti-T. cruzi dose-response growth inhibition assay (Vero cells plus trypomastigotes, CPRG readout). The class given is cell-based. The note with it: Vero cells plus trypomastigotes, MOI 1, four days, mean (SD), read-out: T. cruzi IC50 a (anti-T. cruzi assay).
Setting [2] is: Trypanosoma cruzi, TULAHUEN, 96 h.

Like-named read-outs stand apart in the source and are kept apart here. Bounds are passed on as bounds.

What is called IC50 is the concentration that inhibits the measured activity by half.

For the compound `CC(C)(C)n1c(-c2ccccc2)nc2c(OCc3ccccc3)ncnc21` [Compound 6D], the “HepG2 Cells TC50” value in the data set on HepG2 cells is listed as more than 200 µM. The IC50 in the data set on P. falciparum 3D7 (Plasmodium falciparum, 3D7, 48 h) was 18.9 µM; in data set [1] (setting [2]) it was 5.56 µM.

As for `c1ccc(CCn2c(-c3ccccc3)nc3c(OCc4ccccc4)ncnc32)cc1` [Compound 6g], the “HepG2 Cells TC50” value with HepG2 cells was more than 300 µM. Besides, the IC50 in the data set with P. falciparum 3D7 was found to be 19.1 µM; in data set [1] it was 3.97 µM.

`COC(=O)c1ccccc1-n1cc(COc2ncnc3c2nc(-c2ccccc2)n3N(C)C)nn1` [Compound 34]: in data set [1] (setting [2]), the half-inhibitory concentration (IC50) stood at 4.12 µM.
